Results reported in patent US20080045486A1, “OCULAR ADMINISTRATION OF TESTOSTERONE” (priority 2006, published 2008).

How the values were obtained:
[1] = 16-week dose-ranging study of testosterone ophthalmic solutions in patients with keratoconjunctivitis sicca, serum pharmacokinetics; assay type: in vivo, human; conditions: for increase of serum testosterone concentration over the endogenous baseline / concentration at 10 min: 10 minutes after dosing; for increase of serum testosterone concentration over the endogenous baseline: male patients; for concentration at 10 min: human, serum, other: ophthalmic solution, eye drop, one drop twice daily, female patients, baseline approximately 20 ng/dL
Description: Another clinical study entitled “A Multi-Center, Parallel, Randomized, Double-Masked, Vehicle-Controlled, Dose-Ranging Study to Evaluate the Safety, Tolerability and Efficacy of Testosterone 0.01%, 0.1%, and 0.3% Ophthalmic Solutions Administered Twice Daily for 16 weeks in Patients with Keratoconjunctivitis Sicca (KCS)” was conducted to determine the effectiveness of the ocular administration of testosterone in both women and men. This study was a randomized, multi-center, double-masked, parallel-group study of three treatment groups and one vehicle group. Patients were randomized to either 0.01%, 0.1%, 0.3% testosterone or vehicle of 0.3% testosterone ophthalmic solution. In the treatment phase, patients were instructed to instill one drop of the randomly assigned masked treatment twice daily (in the morning upon waking and before bedtime) for 16 weeks. Data from 135 patients (100 females and 35 males) were included in the pharmacokinetic data analysis. A single blood sample (20 mL) was taken from each patient pre-dose and at 10 minutes post dose on day 0, weeks 1, 4, 8, 12, and 16 for the determination of serum testosterone, dihydrotestosterone, 3-alpha-androstanediol glucuronide and sex hormone binding globulin concentrations. Serum concentrations of testosterone and dihydrotestosterone were determined by a validated gas chromatography-mass spectrometry (GC-MS) method with a quantitation range for DHT of 0.1 to 100 ng/dL and for testosterone of 1.0 to 1000 ng/dL. Serum concentrations of 3-alpha-androstanediol-glucuronide were quantitated by a validated radioimmunoassay method with a range of quantitation from 0.800 to 100 ng/mL, and serum concentrations of sex hormone binding globulin were determined using a validated two-site immunoradiometric assay (IRMA) method with a range of quantitation of 5 to 320 nmol/L for a 1:100 diluted sample.

[2] = Safety and pharmacokinetics study of testosterone ophthalmic solutions for up to 14 days in postmenopausal women; assay type: in vivo, human; conditions: for equivalent absorbed daily dose: assuming production rate 0.125 mg/day; for median Cmax of serum testosterone concentration: each eye twice daily, day 13, healthy postmenopausal women
Description: A clinical study entitled “A Single-Center, Double Masked, Parallel, Dose-Ranging, Vehicle Controlled Study Evaluating the Safety and Pharmacokinetics of Testosterone (0.03%, 0.1%, 0.3%, and 0.6%) Ophthalmic Solutions for up to 14 Days in Postmenopausal Women” was conducted to determine the effectiveness of the ocular administration of testosterone. This study was a randomized, single-center, double-masked, parallel-group study of five treatment groups, with each subject acting as their own baseline control for serum testosterone concentrations. Subjects received testosterone ophthalmic solution 0.03%, 0.1%, 0.3%, 0.6% or vehicle ophthalmic solution in each eye twice daily for 14 days. Each subject had blood withdrawn for the measurement of serum testosterone concentrations. On day 13, blood samples were taken prior to the morning dose (time 0), and at 5, 10, 20, 30, and 45 minutes, 1, 2, 4, 6, 8, and 12 hours post-dose. On day −1, blood samples were taken at the same time as day 13 to evaluate the baseline serum testosterone levels. On days −6, 7, 14, and 27, one blood sample was taken at the same time as day 13 predose draw to evaluate the trough serum testosterone levels (there were no dosing on days −6, −1, and 27). […] Serum testosterone concentrations were assayed using a validated double antibody radioimmunoassay method with a lower limit of quantitation (LLOQ) at 29 pg/mL or 2.9 ng/dL.

C[C@]12CC[C@H]3[C@@H](CCC4=CC(=O)CC[C@@]43C)[C@@H]1CC[C@@H]2O [testosterone, (17β)-17-Hydroxyandrost-4-en-3-one]
increase of serum testosterone concentration over the endogenous baseline ([1]; 0.1% solution): 13%
increase of serum testosterone concentration over the endogenous baseline ([1]; 0.3% solution): 36%
safety concern from serum pharmacokinetic data ([1]; 4 month dosing period, 0.01%, 0.1% and 0.3% dose levels): did not indicate a safety concern
concentration at 10 min ([1]; 0.01% solution): 0.35 ng/mL
concentration at 10 min ([1]; 0.1% solution): 2 ng/mL
concentration at 10 min ([1]; 0.3% solution): 3.5 ng/mL
equivalent absorbed daily dose ([2]; 0.03% formulation BID both eyes): 0.024 mg
average increase of serum testosterone level ([2]; 0.03% formulation, 50 μL BID to both eyes (0.06 mg/day)): 3.8 ng/dL
median Cmax of serum testosterone concentration ([2]; 0.03% ophthalmic solution): 93.5 ng/dL
equivalent absorbed daily dose ([2]; 0.1% formulation BID both eyes): 0.094 mg
average increase of serum testosterone level ([2]; 0.1% formulation, 50 μL BID to both eyes (0.2 mg/day)): 15 ng/dL
median Cmax of serum testosterone concentration ([2]; 0.1% ophthalmic solution): 193 ng/dL
equivalent absorbed daily dose ([2]; 0.3% formulation BID both eyes): 0.15 mg
average increase of serum testosterone level ([2]; 0.3% formulation, 50 μL BID to both eyes (0.6 mg/day)): 24 ng/dL
median Cmax of serum testosterone concentration ([2]; 0.3% ophthalmic solution): 237 ng/dL
equivalent absorbed daily dose ([2]; 0.6% formulation BID both eyes): 0.31 mg
average increase of serum testosterone level ([2]; 0.6% formulation, 50 μL BID to both eyes (1.2 mg/day)): 49 ng/dL
median Cmax of serum testosterone concentration ([2]; 0.6% ophthalmic solution): 457 ng/dL
time for serum testosterone concentration to return to the baseline level ([2]; after dosing of testosterone ophthalmic solution): 12 h
fraction of the peak serum level gone ([2]; in 2 hours after ophthalmical dosing): about 90%
